Activity calls are given as the source filed them.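 How the source made its calls: active means inhibition of at least 50% in a panel; inactive means the rest.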
Legend:
Assay in all cases: off-target binding across receptors and transporters, profiling panel, selectivity assay for STAT3/NF-kB dual inhibitor project, cell-based, radioligand binding, single concentration (AID 624355)
[1] = test system: Leukotriene, Cysteinyl CysLT1; details: Ricerca radioligand binding panel, at 10 µM, hits give high values
Adenosine A1 = details: Ricerca radioligand binding panel, at 10 µM, hits give high values
Dopamine D2S = details: Ricerca radioligand binding panel, at 10 µM, hits give high values
[2] = test system: Voltage-dependent L-type calcium channel subunit beta-4 (Rattus norvegicus) + Pro-epidermal growth factor (Homo sapiens) + Estrogen receptor (Homo sapiens) + Glucocorticoid receptor (Homo sapiens) + 5-hydroxytryptamine receptor 1A (Homo sapiens) + Alpha-2A adrenergic receptor (Homo sapiens) + Adenosine receptor A3 (Homo sapiens) + Androgen receptor (Homo sapiens) + Muscarinic acetylcholine receptor M1 (Homo sapiens) + D(4) dopamine receptor (Homo sapiens) + Alpha-2A adrenergic receptor (Rattus norvegicus) + Sodium- and chloride-dependent GABA transporter 1 (Rattus norvegicus) + Endothelin receptor type B (Homo sapiens) + Histamine H2 receptor (Homo sapiens) + Endothelin-1 receptor (Homo sapiens) + Neuropeptide Y receptor type 1 (Homo sapiens) + B2 bradykinin receptor (Homo sapiens) + Sodium-dependent serotonin transporter (Homo sapiens) + Histamine H1 receptor (Homo sapiens) + Mu-type opioid receptor (Homo sapiens) + D(3) dopamine receptor (Homo sapiens) + Delta-type opioid receptor (Homo sapiens) + Kappa-type opioid receptor (Homo sapiens) + Glutamate receptor ionotropic, kainate 3 (Rattus norvegicus) + 5-hydroxytryptamine receptor 3A (Homo sapiens) + Melatonin receptor type 1A (Homo sapiens) + Neuropeptide Y receptor type 2 (Homo sapiens) + P2Y purinoceptor 1 (Rattus norvegicus) + Thyroid hormone receptor alpha (Rattus norvegicus) + Glutamate receptor ionotropic, NMDA 2B (Rattus norvegicus) + Sodium-dependent dopamine transporter (Homo sapiens) + Protein kinase C zeta type …; details: Ricerca radioligand binding panel, at 10 µM, hits give high values
Purinergic P2Y = details: Ricerca radioligand binding panel, at 10 µM, hits give high values
[3] = target: Neuropeptide Y receptor type 2 (Homo sapiens) (UniProt P49146); details: Ricerca radioligand binding panel, Neuropeptide Y Y2, at 10 µM, hits give high values
[4] = target: Muscarinic acetylcholine receptor M3 (Homo sapiens) (UniProt P20309); details: Ricerca radioligand binding panel, at 10 µM, hits give high values
[5] = target: 5-hydroxytryptamine receptor 1A (Homo sapiens) (UniProt P08908); details: Ricerca radioligand binding panel, Serotonin (5-Hydroxytryptamine) 5-HT1A, at 10 µM, hits give high values
[6] = target: Alpha-2A adrenergic receptor (Homo sapiens) (UniProt P08913); details: Ricerca radioligand binding panel, Adrenergic a2A, at 10 µM, hits give high values
Phorbol Ester = details: Ricerca radioligand binding panel, at 10 µM, hits give high values
[7] = target: Delta-type opioid receptor (Homo sapiens) (UniProt P41143); details: Ricerca radioligand binding panel, Opiate (OP1, DOP), at 10 µM, hits give high values
[8] = test system: Transporter, Serotonin (5-Hydroxytryptamine); details: Ricerca radioligand binding panel, at 10 µM, hits give high values
Thyroid Hormone = details: Ricerca radioligand binding panel, at 10 µM, hits give high values
Imidazoline I2, Central = details: Ricerca radioligand binding panel, at 10 µM, hits give high values
[9] = target: Platelet-activating factor receptor (Homo sapiens) (UniProt P25105); details: Ricerca radioligand binding panel, Platelet Activating Factor (PAF), at 10 µM, hits give high values
Glutamate, NMDA, Agonism = details: Ricerca radioligand binding panel, Agonism site, at 10 µM, hits give high values
GABAB1A = details: Ricerca radioligand binding panel, at 10 µM, hits give high values
Transporter, GABA = details: Ricerca radioligand binding panel, at 10 µM, hits give high values
[10] = target: D(3) dopamine receptor (Homo sapiens) (UniProt P35462); details: Ricerca radioligand binding panel, Dopamine D3, at 10 µM, hits give high values
Cannabinoid CB1 = details: Ricerca radioligand binding panel, at 10 µM, hits give high values
[11] = test system: Calcium Channel L-Type, Dihydropyridine; details: Ricerca radioligand binding panel, Dihydropyridine site, at 10 µM, hits give high values
[12] = test system: Glutamate, NMDA, Phencyclidine; details: Ricerca radioligand binding panel, Phencyclidine site, at 10 µM, hits give high values
[13] = target: D(1A) dopamine receptor (Homo sapiens) (UniProt P21728); details: Ricerca radioligand binding panel, Dopamine D1, at 10 µM, hits give high values
Nicotinic Acetylcholine = details: Ricerca radioligand binding panel, at 10 µM, hits give high values
Opiate (OP3, MOP) = details: Ricerca radioligand binding panel, at 10 µM, hits give high values
Adenosine A2A = details: Ricerca radioligand binding panel, at 10 µM, hits give high values
[14] = target: Beta-2 adrenergic receptor (Homo sapiens) (UniProt P07550); details: Ricerca radioligand binding panel, Adrenergic B2, at 10 µM, hits give high values
Endothelin ETB = details: Ricerca radioligand binding panel, at 10 µM, hits give high values
GABAA, Muscimol, Central = details: Ricerca radioligand binding panel, Muscimol site, at 10 µM, hits give high values
Histamine H3 = details: Ricerca radioligand binding panel, at 10 µM, hits give high values
Adrenergic a1D = details: Ricerca radioligand binding panel, at 10 µM, hits give high values
Calcium Channel N-Type = details: Ricerca radioligand binding panel, at 10 µM, hits give high values
Bradykinin B2 = details: Ricerca radioligand binding panel, at 10 µM, hits give high values
Interleukin IL-1 = details: Ricerca radioligand binding panel, at 10 µM, hits give high values
[15] = target: Kappa-type opioid receptor (Homo sapiens) (UniProt P41145); details: Ricerca radioligand binding panel, Opiate (OP2, KOP), at 10 µM, hits give high values
Bradykinin B1 = details: Ricerca radioligand binding panel, at 10 µM, hits give high values
[16] = test system: Calcium Channel L-Type, Benzothiazepine; details: Ricerca radioligand binding panel, Benzothiazepine site, at 10 µM, hits give high values
Melatonin MT1 = details: Ricerca radioligand binding panel, at 10 µM, hits give high values
[17] = test system: Transporter, Dopamine (DAT); details: Ricerca radioligand binding panel, at 10 µM, hits give high values
[18] = test system: GABAA, Flunitrazepam, Central; details: Ricerca radioligand binding panel, Flunitrazepam site, at 10 µM, hits give high values
[19] = target: Muscarinic acetylcholine receptor M1 (Homo sapiens) (UniProt P11229); details: Ricerca radioligand binding panel, at 10 µM, hits give high values
Histamine H1 = details: Ricerca radioligand binding panel, at 10 µM, hits give high values
Adenosine A3 = details: Ricerca radioligand binding panel, at 10 µM, hits give high values
Glutamate, NMDA, Glycine = details: Ricerca radioligand binding panel, Glycine site, at 10 µM, hits give high values
[20] = test system: Epidermal Growth Factor (EGF); details: Ricerca radioligand binding panel, at 10 µM, hits give high values
Potassium Channel KATP = details: Ricerca radioligand binding panel, at 10 µM, hits give high values
Purinergic P2X = details: Ricerca radioligand binding panel, at 10 µM, hits give high values
[21] = target: Muscarinic acetylcholine receptor M2 (Homo sapiens) (UniProt P08172); details: Ricerca radioligand binding panel, at 10 µM, hits give high values
[22] = target: Neuropeptide Y receptor type 1 (Homo sapiens) (UniProt P25929); details: Ricerca radioligand binding panel, Neuropeptide Y Y1, at 10 µM, hits give high values
[23] = test system: Transporter, Norepinephrine (NET); details: Ricerca radioligand binding panel, at 10 µM, hits give high values
[24] = test system: Androgen (Testosterone) AR; details: Ricerca radioligand binding panel, at 10 µM, hits give high values
Endothelin ETA = details: Ricerca radioligand binding panel, at 10 µM, hits give high values
Adrenergic a1B = details: Ricerca radioligand binding panel, at 10 µM, hits give high values
Histamine H2 = details: Ricerca radioligand binding panel, at 10 µM, hits give high values
Adrenergic a1A = details: Ricerca radioligand binding panel, at 10 µM, hits give high values
[25] = target: Glucocorticoid receptor (Homo sapiens) (UniProt P04150); details: Ricerca radioligand binding panel, at 10 µM, hits give high values
[26] = target: Voltage-gated inwardly rectifying potassium channel KCNH2 (Homo sapiens) (UniProt Q12809); details: Ricerca radioligand binding panel, Potassium Channel hERG, at 10 µM, hits give high values
Glutamate, Kainate = details: Ricerca radioligand binding panel, at 10 µM, hits give high values
Dopamine D4.2 = details: Ricerca radioligand binding panel, at 10 µM, hits give high values
Rolipram = details: Ricerca radioligand binding panel, at 10 µM, hits give high values
Sigma1 = details: Ricerca radioligand binding panel, at 10 µM, hits give high values
[27] = test system: Serotonin (5-Hydroxytryptamine) 5-HT3; details: Ricerca radioligand binding panel, at 10 µM, hits give high values
Tachykinin NK1 = details: Ricerca radioligand binding panel, at 10 µM, hits give high values
Adrenergic B1 = details: Ricerca radioligand binding panel, at 10 µM, hits give high values
Prostanoid EP4 = details: Ricerca radioligand binding panel, at 10 µM, hits give high values
[28] = target: Estrogen receptor (Homo sapiens) (UniProt P03372); details: Ricerca radioligand binding panel, Estrogen Era, at 10 µM, hits give high values
[29] = target: 5-hydroxytryptamine receptor 2B (Homo sapiens) (UniProt P41595); details: Ricerca radioligand binding panel, Serotonin (5-Hydroxytryptamine) 5-HT2B, at 10 µM, hits give high values

Measured: inhibition

5-hydroxytryptamine receptor 1A (Homo sapiens), sequence (P08908 whole entry, looked up): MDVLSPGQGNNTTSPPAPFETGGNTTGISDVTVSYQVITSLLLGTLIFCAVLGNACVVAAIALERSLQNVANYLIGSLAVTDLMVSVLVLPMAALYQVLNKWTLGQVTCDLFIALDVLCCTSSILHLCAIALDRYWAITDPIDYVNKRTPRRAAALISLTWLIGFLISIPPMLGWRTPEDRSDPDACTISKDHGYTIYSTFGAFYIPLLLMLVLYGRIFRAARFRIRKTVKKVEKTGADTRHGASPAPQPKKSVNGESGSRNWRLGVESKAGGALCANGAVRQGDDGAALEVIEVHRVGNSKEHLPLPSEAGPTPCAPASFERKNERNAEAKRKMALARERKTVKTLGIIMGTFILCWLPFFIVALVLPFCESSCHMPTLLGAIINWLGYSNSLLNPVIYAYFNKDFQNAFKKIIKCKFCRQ
Muscarinic acetylcholine receptor M1 (Homo sapiens), sequence (P11229 whole entry, looked up): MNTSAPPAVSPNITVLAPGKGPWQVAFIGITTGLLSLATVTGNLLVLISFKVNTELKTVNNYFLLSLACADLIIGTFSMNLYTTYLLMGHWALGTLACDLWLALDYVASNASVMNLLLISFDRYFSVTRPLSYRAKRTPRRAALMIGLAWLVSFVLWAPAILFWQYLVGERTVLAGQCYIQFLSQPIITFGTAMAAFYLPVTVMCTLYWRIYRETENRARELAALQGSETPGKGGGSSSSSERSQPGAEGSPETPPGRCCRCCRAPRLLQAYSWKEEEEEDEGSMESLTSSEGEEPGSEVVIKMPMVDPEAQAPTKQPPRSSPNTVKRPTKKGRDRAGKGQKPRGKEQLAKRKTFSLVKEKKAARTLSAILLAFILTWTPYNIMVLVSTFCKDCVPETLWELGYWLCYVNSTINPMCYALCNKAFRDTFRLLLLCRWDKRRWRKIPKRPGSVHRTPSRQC
Muscarinic acetylcholine receptor M2 (Homo sapiens), sequence (P08172 whole entry, looked up): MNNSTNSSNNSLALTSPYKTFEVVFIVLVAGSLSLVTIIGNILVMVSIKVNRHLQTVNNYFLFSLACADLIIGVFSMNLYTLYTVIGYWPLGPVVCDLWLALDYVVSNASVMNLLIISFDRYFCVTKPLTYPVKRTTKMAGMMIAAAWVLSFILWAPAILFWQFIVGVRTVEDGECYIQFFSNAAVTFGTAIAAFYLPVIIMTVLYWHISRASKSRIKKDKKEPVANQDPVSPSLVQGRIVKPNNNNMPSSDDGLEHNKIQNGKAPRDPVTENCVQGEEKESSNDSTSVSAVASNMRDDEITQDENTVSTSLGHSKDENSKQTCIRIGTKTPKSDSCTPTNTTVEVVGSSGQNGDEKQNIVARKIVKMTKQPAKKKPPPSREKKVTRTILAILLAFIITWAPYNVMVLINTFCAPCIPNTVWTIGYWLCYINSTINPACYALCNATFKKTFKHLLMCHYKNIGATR
Neuropeptide Y receptor type 2 (Homo sapiens), sequence (P49146 whole entry, looked up): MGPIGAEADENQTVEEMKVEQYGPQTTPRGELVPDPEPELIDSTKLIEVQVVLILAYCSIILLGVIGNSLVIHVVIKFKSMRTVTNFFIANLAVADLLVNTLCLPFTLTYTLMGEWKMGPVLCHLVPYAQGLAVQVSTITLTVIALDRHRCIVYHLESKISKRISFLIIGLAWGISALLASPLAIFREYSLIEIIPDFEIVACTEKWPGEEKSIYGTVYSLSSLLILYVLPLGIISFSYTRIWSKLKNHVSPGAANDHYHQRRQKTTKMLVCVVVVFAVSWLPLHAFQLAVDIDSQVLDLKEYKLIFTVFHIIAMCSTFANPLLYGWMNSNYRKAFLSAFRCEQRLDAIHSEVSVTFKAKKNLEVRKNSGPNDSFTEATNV
Glucocorticoid receptor (Homo sapiens), sequence (P04150 whole entry, looked up): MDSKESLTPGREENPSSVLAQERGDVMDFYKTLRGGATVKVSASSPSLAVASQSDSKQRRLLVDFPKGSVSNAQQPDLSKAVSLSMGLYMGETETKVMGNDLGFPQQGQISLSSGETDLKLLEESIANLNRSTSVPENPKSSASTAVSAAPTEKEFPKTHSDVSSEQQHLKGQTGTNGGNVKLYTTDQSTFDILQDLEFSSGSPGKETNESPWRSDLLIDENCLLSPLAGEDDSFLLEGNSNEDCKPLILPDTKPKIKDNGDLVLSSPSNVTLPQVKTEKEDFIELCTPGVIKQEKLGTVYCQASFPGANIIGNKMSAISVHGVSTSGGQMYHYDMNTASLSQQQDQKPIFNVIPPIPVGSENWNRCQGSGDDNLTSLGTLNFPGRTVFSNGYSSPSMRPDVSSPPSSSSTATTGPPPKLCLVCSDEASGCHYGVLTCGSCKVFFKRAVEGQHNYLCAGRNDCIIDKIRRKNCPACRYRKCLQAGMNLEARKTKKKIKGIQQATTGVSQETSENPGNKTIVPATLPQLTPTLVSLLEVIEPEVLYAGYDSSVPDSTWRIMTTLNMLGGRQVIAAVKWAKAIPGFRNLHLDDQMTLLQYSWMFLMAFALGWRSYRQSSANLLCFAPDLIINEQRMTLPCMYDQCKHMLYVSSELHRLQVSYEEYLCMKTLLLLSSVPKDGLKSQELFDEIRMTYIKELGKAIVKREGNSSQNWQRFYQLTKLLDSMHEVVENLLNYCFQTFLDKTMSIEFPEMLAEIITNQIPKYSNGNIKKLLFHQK
Voltage-gated inwardly rectifying potassium channel KCNH2 (Homo sapiens), sequence (Q12809 whole entry, looked up): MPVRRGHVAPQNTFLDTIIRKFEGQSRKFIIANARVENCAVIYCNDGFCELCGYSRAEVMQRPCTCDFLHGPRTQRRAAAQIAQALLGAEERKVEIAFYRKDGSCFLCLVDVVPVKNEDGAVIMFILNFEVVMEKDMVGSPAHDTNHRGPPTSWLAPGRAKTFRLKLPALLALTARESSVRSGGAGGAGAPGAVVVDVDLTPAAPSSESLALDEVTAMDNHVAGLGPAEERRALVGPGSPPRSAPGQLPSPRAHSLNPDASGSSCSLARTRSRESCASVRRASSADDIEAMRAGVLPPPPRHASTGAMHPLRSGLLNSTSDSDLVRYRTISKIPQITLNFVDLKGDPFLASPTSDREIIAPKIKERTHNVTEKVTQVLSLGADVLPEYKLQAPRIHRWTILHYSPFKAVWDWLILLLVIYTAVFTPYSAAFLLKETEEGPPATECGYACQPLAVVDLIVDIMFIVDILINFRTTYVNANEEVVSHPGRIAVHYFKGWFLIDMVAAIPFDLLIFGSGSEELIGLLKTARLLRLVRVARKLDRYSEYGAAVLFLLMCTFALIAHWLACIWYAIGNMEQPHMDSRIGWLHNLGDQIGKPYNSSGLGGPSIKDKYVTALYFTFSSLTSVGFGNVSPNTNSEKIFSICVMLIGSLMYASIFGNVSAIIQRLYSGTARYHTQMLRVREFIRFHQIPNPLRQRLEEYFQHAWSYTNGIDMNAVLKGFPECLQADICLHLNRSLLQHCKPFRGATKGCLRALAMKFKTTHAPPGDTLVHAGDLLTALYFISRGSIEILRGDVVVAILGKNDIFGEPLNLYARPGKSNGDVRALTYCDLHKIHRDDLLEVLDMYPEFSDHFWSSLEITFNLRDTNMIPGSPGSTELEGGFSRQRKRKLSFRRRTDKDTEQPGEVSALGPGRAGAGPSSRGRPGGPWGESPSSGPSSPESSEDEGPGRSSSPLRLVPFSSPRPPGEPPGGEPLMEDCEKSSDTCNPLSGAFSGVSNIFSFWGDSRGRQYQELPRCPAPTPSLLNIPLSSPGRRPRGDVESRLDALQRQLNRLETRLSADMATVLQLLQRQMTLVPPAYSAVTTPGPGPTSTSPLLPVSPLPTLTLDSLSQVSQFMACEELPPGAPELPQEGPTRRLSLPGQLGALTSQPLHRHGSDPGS
Neuropeptide Y receptor type 1 (Homo sapiens), sequence (P25929 whole entry, looked up): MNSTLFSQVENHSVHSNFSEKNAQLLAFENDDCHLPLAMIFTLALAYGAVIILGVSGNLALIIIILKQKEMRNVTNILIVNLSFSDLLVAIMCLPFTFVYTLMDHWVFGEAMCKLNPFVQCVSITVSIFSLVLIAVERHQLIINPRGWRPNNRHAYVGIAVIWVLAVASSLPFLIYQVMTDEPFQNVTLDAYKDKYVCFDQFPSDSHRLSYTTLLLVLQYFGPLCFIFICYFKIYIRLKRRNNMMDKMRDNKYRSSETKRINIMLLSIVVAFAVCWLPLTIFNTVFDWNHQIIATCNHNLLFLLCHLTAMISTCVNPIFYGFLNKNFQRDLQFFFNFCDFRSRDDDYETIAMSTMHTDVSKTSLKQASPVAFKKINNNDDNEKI
5-hydroxytryptamine receptor 2B (Homo sapiens), sequence (P41595 whole entry, looked up): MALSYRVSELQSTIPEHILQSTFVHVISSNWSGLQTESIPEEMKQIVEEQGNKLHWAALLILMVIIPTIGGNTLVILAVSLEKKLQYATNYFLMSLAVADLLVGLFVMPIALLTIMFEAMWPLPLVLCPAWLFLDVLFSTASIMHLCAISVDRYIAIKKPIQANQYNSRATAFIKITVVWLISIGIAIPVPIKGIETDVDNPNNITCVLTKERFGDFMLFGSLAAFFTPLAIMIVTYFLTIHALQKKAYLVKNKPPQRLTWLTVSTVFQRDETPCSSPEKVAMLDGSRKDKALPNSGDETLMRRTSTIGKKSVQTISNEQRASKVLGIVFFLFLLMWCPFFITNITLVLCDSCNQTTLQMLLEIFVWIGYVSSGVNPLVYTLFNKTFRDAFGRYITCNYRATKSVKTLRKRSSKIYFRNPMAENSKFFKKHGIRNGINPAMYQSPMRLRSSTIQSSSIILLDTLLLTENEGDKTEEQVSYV
Platelet-activating factor receptor (Homo sapiens), sequence (P25105 whole entry, looked up): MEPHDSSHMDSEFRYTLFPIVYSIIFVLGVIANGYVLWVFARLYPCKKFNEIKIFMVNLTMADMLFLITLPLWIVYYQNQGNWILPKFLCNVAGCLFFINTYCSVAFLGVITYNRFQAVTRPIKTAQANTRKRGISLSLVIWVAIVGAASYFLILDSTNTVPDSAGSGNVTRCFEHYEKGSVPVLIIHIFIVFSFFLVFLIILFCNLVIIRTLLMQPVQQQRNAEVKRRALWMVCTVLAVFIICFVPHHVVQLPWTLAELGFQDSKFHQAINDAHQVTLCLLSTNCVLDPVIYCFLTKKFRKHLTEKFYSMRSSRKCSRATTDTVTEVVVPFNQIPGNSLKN

COc1ccc(CC2CCN(c3ncnc4sccc34)CC2)cc1
active: Adenosine A1 52% | [6] 56% | [10] 51% | Opiate (OP3, MOP) 55% | GABAA, Muscimol, Central 58% | [15] 69% | Melatonin MT1 68% | [17] 98% | [23] 80%
inactive: [1] -3% | Dopamine D2S 11% | [2] 3% | Purinergic P2Y -7% | [3] 11% | [4] 11% | [5] 1% | Phorbol Ester 10% | [7] 27% | [8] 44% | Thyroid Hormone 9% | Imidazoline I2, Central 15% | [9] 30% | Glutamate, NMDA, Agonism 9% | GABAB1A 10% | Transporter, GABA 1% | Cannabinoid CB1 28% | [11] 47% | [12] 13% | [13] 7% | Nicotinic Acetylcholine -26% | Adenosine A2A 31% | [14] 10% | Endothelin ETB 6% | Histamine H3 -2% | Adrenergic a1D 19% | Calcium Channel N-Type -2% | Bradykinin B2 8% | Interleukin IL-1 9% | Bradykinin B1 4% | [16] 8% | [18] -6% | [19] -5% | Histamine H1 8% | Adenosine A3 23% | Glutamate, NMDA, Glycine 1% | [20] 2% | Potassium Channel KATP 18% | Purinergic P2X -12% | [21] 4% | [22] 2% | [24] 11% | Endothelin ETA 21% | Adrenergic a1B 6% | Histamine H2 -8% | Adrenergic a1A 28% | [25] 15% | [26] 28% | Glutamate, Kainate -3% | Dopamine D4.2 4% | Rolipram 12% | Sigma1 13% | [27] -13% | Tachykinin NK1 6% | Adrenergic B1 23% | Prostanoid EP4 27% | [28] 1% | [29] 47%
